Laboratory results from patent US20030229108A1, “Barbituric acid analogs as therapeutic agents” (priority 2000, published 2003).

system: VEGF promoter (VEGF-luciferase reporter) in Hepatoma 3B (hep3B) cells; assay: VEGF-luciferase cell-based reporter assay, desferoxamine-induced, Hepatoma 3B (hep3B) cells; conditions: 15 h, read-out: Secondary Assay VEGF-luciferase IC50
From the text: This cell-based reporter assay involves the use of a luciferase reporter gene under the direct control of the VEGF promoter. Induction of HIF using desferoxamine leads to the transcription of luciferase through activation of the VEGF (Vascular Endothelial Growth Factor) promoter, which in turn leads to an increase in luciferase activity, which can be measured using most commercially available luciferase assay kits. Molecules that disrupt the HIF complex cause inhibition of HIF-dependent luciferase activation and lead to a reduction in luciferase activity. This assay allows the activity of the compounds to be assessed against the VEGF promoter, which is essential for VEGF production and subsequent angiogenesis.
Hepatoma 3B (hep3B) cells (ATCC Ref. No. HB-8064) were plated in 24-well plates at 2×10^4/well in 500 μL DMEM/10% FCS, and were transfected the following day using Fugene 6 (Roche Biochemicals®, Lewes, E. Sussex, UK). Transfection mixtures per well contained 6 μL 10% Fugene, 200 ng VEGF-luciferase reporter (rat VEGF promoter, NCBI GenBank, accession number U22373, Levy et al., 1995) and 2 ng TK-renilla (Promega®, Madison, Wis., USA) (for transfection efficiency control). Transfection was performed as recommended by manufacturer. Compounds were added the following day. After 1 hour incubation at 37° C., desferoxamine (Sigma®, Dorset, UK) was added at 100 μM to induce HIF activity. Duplicate wells without desferoxamine were run in parallel. Cells were harvested 15 hours later, and luciferase activity was measured using Dual Luciferase Assay System (Promega®, see also Technical Manual, Part #TM040, Instructions for Use of Products E1910 and E1960, revised May/1999).

| Compound | IC50 [µM] |
| --- | --- |
| Cn1c(=O)[nH]c(=O)c2c1nc(N)n2CC(O)COc1ccc(Cl)cc1 (stereo not drawn) [PX084819] | 50 |
| CCOc1ccc(Br)cc1C=C1C(=O)NC(=S)NC1=O [PX089633] | 50 |
| Cc1cc2nc3c(=O)n(CC(=O)O)c(=O)nc-3n(C)c2cc1C [PX088992] | 20 |
| O=C1NC(=S)NC(=O)C1=Cc1c2ccccc2cc2ccccc12 [PX106031, 5-(Anthracen-9-ylmethylene)-2-thioxo-dihydro-pyrimidine-4,6-dione] | 50 |
| O=C1NC(=S)NC(=O)C1=Cc1ccccc1OCc1ccccc1F [PX106343] | 100 |
| O=C1NC(=S)NC(=O)C1=Cc1ccco1 [PX083634, 5-(Furan-2-ylmethylene)-2-thioxo-dihydro-pyrimidine-4,6-dione] | 50 |
| COc1ccc2cccc(/C=C3/C(=O)NC(=S)N(c4ccc(Br)cc4)C3=O)c2c1 [PX106265] | 32 |
| COc1cccc(N2C(=O)/C(=C/c3ccsc3)C(=O)NC2=S)c1 [PX106287] | 100 |
| O=C1NC(=S)NC(=O)C1=Cc1ccc(/C=C/c2ccccc2)cc1 [px106027, 5-(4-Styryl-benzylidene)-2-thioxo-dihydro-pyrimidine-4,6-dione] | 75 |
| O=C1NC(=S)NC(=O)C1=Cc1ccc(-c2cc(Cl)ccc2Cl)o1 [PX106326] | 50 |
| CN(C)c1ccc(C=C2C(=O)N(c3ccccc3)C(=S)N(c3ccccc3)C2=O)cc1[N+](=O)[O-] [PX089626] | 75 |
| O=C1NC(=S)NC(=O)C1=C/C=C/c1ccccc1 [PX072015, 5-(3-Phenyl-allylidene)-2-thioxo-dihydro-pyrimidine-4,6-dione] | 18 |
| Cc1cc2nc3c(=O)[nH]c(=O)nc-3n(CC(O)C(O)C(O)CO)c2cc1C (stereo not drawn) [P2083033] | 20 |
| Cc1ccc(N2C(=O)/C(=C/c3ccoc3)C(=O)NC2=S)cc1 [PX106297] | 100 |

molecular target: T1, interaction between HIF-1α and p300 (His-HIF-1α / GST-p300) (Homo sapiens, UniProt Q09472+Q16665); assay: Primary assay: fluorescence-based (DELFIA) screening assay for inhibition of the HIF-1α/p300 interaction; type: binding; conditions: not given
T1 construct: corresponding to the C-terminal 390 amino acids into vector pET28a; A plasmid containing the N-terminal 595 amino acids of human p300; made in house; host or cells: E. coli
Description: Candidate compounds were assessed for their ability to inhibit the interaction between HIF-1α and p300 using a high throughput fluorescence-based screening assay (DELFIA) as follows.
A plasmid expressing His-HIF-1α fusion protein was constructed by PCR, by amplifying and subcloning a fragment of the human HIF-1α cDNA (NCBI GenBank, accession number AH006957) corresponding to the C-terminal 390 amino acids into vector pET28a (Novagen®, Madison, Wis., USA). A plasmid containing the N-terminal 595 amino acids of human p300 (NCBI GenBank, accession number U01877) inserted into vector pGEX2T (Pharmacia®, Little Chalfont, Bucks, UK) was used for the production of GST-p300 fusion protein. The recombinant proteins were produced in E. coli. His-HIF-1α was purified using Ni-NTA agarose beads, according to manufacture's method (Qiagen®, Crawley, West Sussex, UK). GST-p300 was purified using Glutathione-sepharose beads (Amersham Pharmacia®, Little Chalfont, Bucks, UK) according to manufacturer's instructions. A titration of every batch of p300 was carried out in order to determine the optimum dilution of the protein to obtain at least a 10:1 ratio signal to noise in the binding assay.
The assay was performed in 96-well Polysorb plates (Nalge Nunc International®, Rochester, N.Y., USA) as follows. Plates were coated with His-HIF-1α at 50 ng/well in […] and incubated overnight at 4° C. The plates were then washed 3 times with deionized water and blocked with 100 μL/well 3% BSA in PBS for 3 hours at 4° C. After washing 3 times as before, GST-p300 was added at the appropriate dilution (1:800 in this screening) in binding buffer (50 mM HEPES pH 7.5, 50 mM NaCl, 0.1% BSA, 0.5 mM DTT). The reaction was incubated at room temperature for 1 hour. Plates were washed 3 times and anti-GST Europium-conjugated antibody (from Wallac®, Turku, Finland) was added at 50 ng/well in […]. After 45 minutes incubation, plates were washed 3 times as before. Then, 100 μL/well enhancement solution (from Wallac®, Catalog No. 1244-105) was added and allowed to react for 15 minutes at room temperature. Plates were read on a Victor 2 plate reader (from Wallac®).

T1 sequence (Q16665 437-826 limits assumed): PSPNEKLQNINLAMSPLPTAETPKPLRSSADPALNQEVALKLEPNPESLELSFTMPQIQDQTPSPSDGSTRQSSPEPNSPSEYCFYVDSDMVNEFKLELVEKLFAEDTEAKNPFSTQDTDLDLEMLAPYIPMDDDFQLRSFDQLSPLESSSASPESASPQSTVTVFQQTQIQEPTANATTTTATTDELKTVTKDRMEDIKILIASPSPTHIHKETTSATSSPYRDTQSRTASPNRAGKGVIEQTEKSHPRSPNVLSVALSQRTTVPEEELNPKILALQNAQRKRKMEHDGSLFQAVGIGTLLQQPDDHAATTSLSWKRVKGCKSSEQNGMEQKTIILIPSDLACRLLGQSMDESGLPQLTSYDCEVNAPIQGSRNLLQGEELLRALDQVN
T1 sequence (Q09472 1-595 limits assumed): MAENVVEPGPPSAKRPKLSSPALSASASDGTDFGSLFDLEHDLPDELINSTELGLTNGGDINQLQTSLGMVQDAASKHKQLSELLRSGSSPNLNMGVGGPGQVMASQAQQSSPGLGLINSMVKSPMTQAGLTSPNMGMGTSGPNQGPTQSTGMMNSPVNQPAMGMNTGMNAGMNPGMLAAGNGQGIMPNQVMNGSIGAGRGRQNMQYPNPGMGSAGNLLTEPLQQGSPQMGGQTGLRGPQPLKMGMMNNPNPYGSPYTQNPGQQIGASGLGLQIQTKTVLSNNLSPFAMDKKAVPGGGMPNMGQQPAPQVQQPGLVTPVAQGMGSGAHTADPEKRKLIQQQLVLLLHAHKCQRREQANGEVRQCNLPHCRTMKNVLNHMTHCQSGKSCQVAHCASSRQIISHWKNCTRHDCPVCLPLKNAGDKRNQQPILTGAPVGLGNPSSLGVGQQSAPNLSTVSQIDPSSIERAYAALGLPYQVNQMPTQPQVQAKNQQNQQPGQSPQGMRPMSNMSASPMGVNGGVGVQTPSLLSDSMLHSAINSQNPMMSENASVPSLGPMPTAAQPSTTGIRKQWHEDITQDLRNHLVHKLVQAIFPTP

| Compound | IC50 [µM] |
| --- | --- |
| COc1ccccc1C=C1C(=O)NC(=S)NC1=O [PX105993, 5-(2-Methoxy-benzylidene)-2-thioxo-dihydro-pyrimidine-4,6-dione] | 80 |
| CCOc1ccccc1C=C1C(=O)NC(=O)NC1=O [PX075248] | 450 |
| O=C1NC(=S)NC(=O)C1=Cc1cccs1 [PX089638] | 130 |
| COc1ccc(OC)c(N2C(=O)/C(=C/c3ccco3)C(=O)NC2=S)c1 [PX106274] | 29 |
| CCOc1ccc(Br)cc1C=C1C(=O)NC(=S)NC1=O [PX089633] | 70 |
| O=C1NC(=O)C(=Cc2cccc(O)c2)C(=O)N1 [PX089376] | 200 |
| COc1ccc(C=C2C(=O)NC(=S)NC2=O)cc1OC [PX075262, 5-(3,4-Dimethoxy-benzylidene)-2-thioxo-dihydro-pyrimidine-4,6-dione] | 65 |
| O=C1NC(=O)C(=Cc2ccc3c(c2)OCO3)C(=O)N1 [PX075240] | 100 |
| CCN(CC)c1ccc(C=C2C(=O)N(c3ccccc3)C(=S)N(c3ccccc3)C2=O)cc1 [PX089647] | 100 |
| O=C1NC(=O)C(=Cc2ccc(Cl)cc2Cl)C(=O)N1 [PX089367] | 200 |
| COc1ccc(OC)c(C=C2C(=O)NC(=O)NC2=O)c1 [PX075257] | 350 |
| COc1ccc(C=C2C(=O)NC(=O)NC2=O)c(Cl)c1OC [PX074728] | 125 |
| O=C1NC(=S)N(c2ccc(F)cc2)C(=O)/C1=C/c1ccc(-c2ccc(Cl)c(C(=O)O)c2)o1 [PX106244] | 40 |
| O=C1NC(=S)N(c2ccc(Cl)cc2)C(=O)/C1=C/C=C/c1ccco1 [PX106291] | 80 |
| O=C1NC(=S)N(c2ccc(F)cc2)C(=O)/C1=C/c1ccc2c(c1)OCO2 [PX106255] | 3 |
| O=C1NC(=S)NC(=O)C1=C/C=N/Nc1ccccc1 [PX089619] | 180 |
| CC(=O)Nc1ccc(C=C2C(=O)NC(=S)NC2=O)cc1 [PX089632, N-[4-(4,6-Dioxo-2-thioxo-tetrahydro-pyrimidin-5-ylidenemethyl)-phenyl]-acetamide] | 15 |
| COc1cc(C=C2C(=O)NC(=O)NC2=O)ccc1O [PX072008] | 300 |
| O=C1NC(=O)C(=CC2CC=CCC2)C(=O)N1 (stereo not drawn) [PX089369] | 225 |
| O=C1NC(=O)C(=Cc2c(F)cccc2Cl)C(=O)N1 [PX069119] | 250 |
| O=C1NC(=O)C(=Cc2cccc(OCc3ccccc3)c2)C(=O)N1 [PX075245] | 125 |
| O=C1NC(=S)NC(=O)C1=Cc1ccccc1OCc1ccccc1F [PX106343] | 49 |

| Compound | IC50 [µM] |
| --- | --- |
| COc1cc(C=C2C(=O)NC(=O)NC2=O)c([N+](=O)[O-])cc1OCc1ccccc1 [PX069153] | 200 |
| O=C1NC(=O)C(=Cc2ccc(O)cc2)C(=O)N1 [PX089377] | 400 |
| O=C1NC(=S)NC(=O)C1=Cc1ccco1 [PX083634, 5-(Furan-2-ylmethylene)-2-thioxo-dihydro-pyrimidine-4,6-dione] | 65 |
| O=C1NC(=S)NC(=O)C1=Cc1ccc(Cl)cc1 [PX089640, 5-(4-Chloro-benzylidene)-2-thioxo-dihydro-pyrimidine-4,6-dione] | 100 |
| O=C1NC(=O)C(=C/C=C/c2ccccc2)C(=O)N1 [PX089370] | 225 |
| COc1ccc2cccc(/C=C3/C(=O)NC(=S)N(c4ccc(Br)cc4)C3=O)c2c1 [PX106265] | 50 |
| CCOc1ccc(C=C2C(=O)NC(=O)NC2=O)cc1 [PX072012] | 175 |
| O=C1NC(=O)C(=Cc2ccc(Cl)c(Cl)c2)C(=O)N1 [PX072002] | 225 |
| Cc1ccccc1N1C(=O)/C(=C/c2ccco2)C(=O)NC1=S [PX106130] | 29 |
| COc1ccc(C=C2C(=O)NC(=S)NC2=O)cc1OCc1ccccc1 [PX105990, 5-(3-Benzyloxy-4-methoxy-benzylidene)-2-thioxo-dihydro-pyrimidine-4,6-dione] | 20 |
| Cc1cc(C=C2C(=O)NC(=S)NC2=O)c(C)n1-c1sc2c(c1C#N)CCCC2 [PX106174] | 43 |
| COc1cccc(C=C2C(=O)NC(=O)NC2=O)c1OC [PX089371] | 400 |
| O=C1NC(=S)NC(=O)C1=Cc1ccc(-c2cc(Cl)ccc2Cl)o1 [PX106326] | 40 |
| CN(C)c1ccc(C=C2C(=O)N(c3ccccc3)C(=S)N(c3ccccc3)C2=O)cc1[N+](=O)[O-] [PX089626] | 40 |
| O=C1NC(=O)C(=C/C=N/Nc2ccccc2)C(=O)N1 [PX089620] | 80 |
| COc1ccc(C=C2C(=O)NC(=O)NC2=O)cc1 [PX089375] | 200 |
| O=C1NC(=O)C(=Cc2ccccc2Cl)C(=O)N1 [PX083677] | 400 |
| COc1ccc(C=C2C(=O)N(c3ccccc3)C(=S)N(c3ccccc3)C2=O)cc1OC [PX089646] | 100 |
| COc1ccc(C=C2C(=O)NC(=O)NC2=O)cc1OC [PX072004] | 250 |
| O=C1NC(=O)C(=Cc2ccccc2)C(=O)N1 [PX089368] | 350 |
| Cc1ccc(N2C(=O)/C(=C/c3ccoc3)C(=O)NC2=S)cc1 [PX106297] | 32 |
| O=C1NC(=O)C(=Cc2ccc(O)c(O)c2)C(=O)N1 [PX089374] | 230 |

same assay, conditions: read-out: Primary Assay Inhibition IC50

| Compound | IC50 [µM] |
| --- | --- |
| COc1ccc(-c2nc3c(=N)n(-c4cccc(C(F)(F)F)c4)c(=O)[nH]c3c(=O)[nH]2)cc1OC [P2082229] | 125 |
| N=c1c2nc(-c3ccc4c(c3)OCO4)[nH]c(=O)c2[nH]c(=O)n1-c1ccc(Cl)cc1 [P2082202] | 250 |
| COc1cccc(-c2nc3c(=N)n(-c4ccc(Cl)cc4)c(=O)[nH]c3c(=O)[nH]2)c1O [P2081958] | 125 |
| Cn1c(=O)[nH]c(=O)c2c1nc(N)n2CC(O)COc1ccc(Cl)cc1 (stereo not drawn) [PX084819] | 10 |
| Cc1cc2nc3c(=O)n(CC(=O)O)c(=O)nc-3n(C)c2cc1C [PX088992] | 10 |
| COc1ccc(-c2nc3c(=N)n(-c4ccc(Cl)cc4)c(=O)[nH]c3c(=O)[nH]2)cc1 [PX081770] | 125 |
| N=c1c2nc(-c3ccccc3)[nH]c(=O)c2[nH]c(=O)n1-c1ccccc1 [P2082132] | 125 |
| Cn1c(=O)c2c(ncn2CC(O)CN2CCN(c3cccc(Cl)c3)CC2)n(C)c1=O (stereo not drawn) [P2082796] | 150 |
